{"source": "patent US12319915B2", "about": "“Cytotoxic fluoropyrimidine polymers and methods of use thereof” (Wake Forest University Health Sciences, priority 2018, dated 2025)", "key": {"HCC2998": {"tested_on": "HCC2998", "experiment": "NCI60 cell line screen, HCC2998", "format": "cell-based", "conditions": "Homo sapiens, HCC 2998; HCC2998, NCI 60 cell line screen"}, "[1]": {"tested_on": "HCT-116-luc orthotopic xenografts", "description": "Orthotopic Colorectal Model. Protocol was followed per Tseng et al.'s previous study (Tseng W. et al., Vis Exp, 2007 (10): p. 484). A xenograft tumor was formed as described above using HCT116-luc cells. Once the tumor reached a size large enough for transplantation, mice were euthanized and tumor tissue was removed. The tumor was divided into 2-3 mm pieces and placed in PBS on ice. BALB/c mice were put under anesthesia, and the abdomen was prepped with a betadine solution. A laparotomy was performed in the abdomen and the cecum was exposed. The cecal wall was slightly damaged to allow cell invasion. A piece of tumor tissue was then attached to the outside of the cecum by a figure-8 stitch using a 9-O-nylon suture. The cecum is returned to the cavity and the abdomen wall is closed up using 6-0 coated vycryl sutures. A rectal thermometer monitored the internal temperature of the mice during surgery. Mouse recovery was monitored closely and mice were given Meloxicam every day for 3 days to alleviate pain along with normal saline to keep the mice hydrated. Tumor volume and cell progression was monitored using an IVIS live imaging system for evaluated total proton flux. […] CF10 was dosed 2×/week every week at 360 mg/kg (n=8 study 1; n=2 in study 2). All drugs, or vehicle (0.9% saline; n=8 study 1; n=6 study 2) were administered by i.p. injection in 200 μL volume.\nAnimal Imaging. Pierce D-Luciferin (Thermo Scientific) was injected subcutaneous using a 28-gauge needle 15 minutes before imaging. Mice were placed in an anesthesia chamber with 1.5% isoflurane and then transferred to the IVIS stage under 2% isoflurane using a nose cone placing the mice on their back. IVIS Lumina LT Series III machine was used for all mouse images. All images were analyzed at the end of the time experiment using the same Living Image software. A region of interest was placed on the mouse′ midsection and determined the total flux in that region. The region of interest remained identical for each mouse. Graphs were plotted as total flux per mouse for each week.\nStatistical Analysis. All statistical analyses were conducted using SAS 9.4 using a mixed models approach. Baseline flux from IVIS imaging measurement, group, time and group-by-time interaction were included as fixed effects. The animals were included as random effects to account for the within animal correlation. Survival differences among treatment groups were determined using a log-rank test.\nHistology Analysis. Tissues from select mice from all treatment groups were removed from animals after undergoing euthanasia by intra-cardiac administration of KCl solution. In some instances, mice were injected with luciferin ˜20 min prior to euthanasia and tissue extraction to permit IVIS imaging of extracted tissue. Tumors were weighed after removal and in instances where there was suspicion of possible metastases to liver, lung, or other organs tissue from these organs was removed and if luciferin was administered prior to euthanasia, these tissues were imaged using the IVIS system. All tissues were fixed in 10% neutral buffered formalin for 24 h followed by transfer to 70% ethanol. Following routine processing in xylene, tissues were sectioned at 4 μm and stained with Hematoxylin and Eosin and evaluated by light microscopy by a veterinary pathologist."}, "[2]": {"conditions": "cited from earlier work"}, "HCT-116": {"tested_on": "HCT-116", "experiment": "NCI60 cell line screen, HCT-116", "format": "cell-based", "conditions": "Homo sapiens; HCT-116, NCI 60 cell line screen"}, "COLO205": {"tested_on": "COLO205", "experiment": "NCI60 cell line screen, COLO205", "format": "cell-based", "conditions": "Homo sapiens, COLO 205; COLO205, NCI 60 cell line screen"}, "KM-12": {"tested_on": "KM-12", "experiment": "NCI60 cell line screen, KM-12", "format": "cell-based", "conditions": "Homo sapiens, KM12; KM-12, NCI 60 cell line screen"}, "HT-29": {"tested_on": "HT-29", "experiment": "NCI60 cell line screen, HT-29", "format": "cell-based", "conditions": "Homo sapiens; HT-29, NCI 60 cell line screen"}, "HCT-15": {"tested_on": "HCT-15", "experiment": "NCI60 cell line screen, HCT-15", "format": "cell-based", "conditions": "Homo sapiens; HCT-15, NCI 60 cell line screen"}, "SW620": {"tested_on": "SW620", "experiment": "NCI60 cell line screen, SW620", "format": "cell-based", "conditions": "Homo sapiens, SW-620; SW620, NCI 60 cell line screen"}, "HCT-116 cells": {"tested_on": "HCT-116 cells", "experiment": "cells", "conditions": "Homo sapiens, HCT-116, 96 h, read-out: potency (cytotoxicity) to HCT-116 cells", "description": "Cell Lines and Drugs. HCT-116 human CRC cells were supplied by GRCF Biorepository & Cell Center (Johns Hopkins University). HCT116 cells were infected with UBC-GFPLuc-LV by the Cell and Viral Vector Laboratory at Wake Forest School of Medicine to generate luciferase-expressing HCT116-luc cells. These cells also express GFP. All human CRC cell lines were maintained in Dulbecco's Modified Eagle Medium (DMEM; Lonza, Switzerland) supplemented with 10% fetal bovine serum (FBS; Sigma, St. Louis, Missouri). Cell lines were cultured in conditions of 37° C. and 5% CO2 and were confirmed negative for mycoplasma.\nCell Culture. Cells were seeded in 96-well plates at the appropriate density in 200 μL medium and incubated for 37° C. overnight for cell attachment. […] Compounds were serially-diluted in either water or DMSO (final DMSO percentage<1%) to a stock concentration, and an equal amount of drug was added to the exponentially growing cells for each tested concentration. All drugs were filtered in 0.22 μm filter before use.\nCell Viability. CellTiter-Glo (Promega, Wisconsin) was used to determine cell viability. Assays were performed according to the manufacturer's instructions. Cell viability was normalized and calculated as a relative percentage of the averaged vehicle control."}, "HCT-116 flank tumors": {"tested_on": "HCT-116 flank tumors", "experiment": "HCT-116 flank xenograft model", "conditions": "5-FU 70 mg/kg i.p. 2× per week every other week", "protocol": "Animal Model. […] All of the animal experiments were performed on six-to-eight-week-old female BALB/c mice.\nXenograft Model. HCT116 cells (3×10^6 cells) were suspended in ice-cold PBS and mixed 1:1 with Matrigel and subcutaneously injected into the flanks of Balb/nude mice. Tumor growth and mice health were monitored daily until the tumor reached a volume of 100-200 mm^3 (about two weeks). Tumor measurements were taken using electronic digital calipers twice a week, along with mouse weight. Tumor volume (V) was calculated as V=π/6 (L×W^2). 5-FU (70 mg/kg 2×/wk every other week) or CF10 (300 mg/kg) were dosed by intraperitoneal (i.p.) injection using a 28-gauge needle. Mice requiring removal from study due to large tumor burden or weight-loss were euthanized in accord with AVMA guidelines."}, "[3]": {"target": "T1, thymidylate synthase (TS) (Homo sapiens, UniProt P04818)", "T1 construct": "Cell lysate aliquots (400 μg of protein) were added to the reaction buffer; endogenous in cells; host or cells: HCT116 human colorectal cancer cells", "T1 sequence (P04818 2-313 limits assumed)": "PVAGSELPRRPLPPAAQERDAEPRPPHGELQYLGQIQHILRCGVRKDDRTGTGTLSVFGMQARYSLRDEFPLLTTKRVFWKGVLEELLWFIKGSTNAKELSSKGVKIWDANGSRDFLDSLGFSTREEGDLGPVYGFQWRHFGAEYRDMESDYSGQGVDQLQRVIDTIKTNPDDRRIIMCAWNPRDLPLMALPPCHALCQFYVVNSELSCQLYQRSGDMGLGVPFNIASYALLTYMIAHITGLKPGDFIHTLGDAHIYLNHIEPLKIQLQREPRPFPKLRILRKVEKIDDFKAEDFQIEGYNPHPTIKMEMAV", "experiment": "Thymidylate synthase activity in lysates of treated HCT116 cells", "format": "cell-based", "conditions": "HCT-116 cells, 100 nM", "procedure": "Thymidylate Synthase Activity. TS activity assays were performed using well-established procedures. HCT116 cells were plated at a density of 1.0-1.5×10^6 cells in […] plates. Cells were grown overnight in DMEM media with 10% FBS to allow the cells to adhere and begin to grow. Drugs were then added to the medium and the cells were incubated for the indicated time (24 h or 48 h). Cells were then harvested in 25 mM Tris-HCl, pH 7.4 with Complete Protease Inhibitor Cocktail present (as per instructed, Roche), put through two freeze/thaw cycles, and vigorously vortexed. The lysates were centrifuged at 10,000×g for 10 min at 4° C. The supernatants were assayed for protein concentration and TS catalytic activity. TS catalytic assays were performed in a final volume of 200 μL containing freshly prepared 75 μM 5,10 methylene tetrahydrofolate in 0.5 M NaOH (Schircks Laboratories, Switzerland), 10 μM dUMP, 200,000 dpm of 3H-dUMP (Moravek Biochemicals), 100 μM 2-mercaptoethanol, and 25 mM KH2PO4, pH 7.4. Cell lysate aliquots (400 μg of protein) were added to the reaction buffer and lysis buffer was used to adjust the final volume. The reaction mixture was incubated at 37° C. for 30 min, then stopped by addition of 100 μL of ice-cold, 20% TCA. Stopped reactions were maintained 5 min on ice. […] Reactions were then centrifuged, and aliquots of the supernatant were read by scintillation counting."}}}
{"smiles": "O=c1[nH]cc(F)c(=O)[nH]1", "note": "[5-FU, 5-fluorouracil]", "values": [{"measurement": "GI50", "setting": "HCC2998", "value": 1510, "unit": "nM"}, {"measurement": "primary tumor weight", "setting": "[1]; 5-FU average at week 5, CF10 one mouse at week 8", "value": 1.0, "unit": "g"}, {"measurement": "mice with putative metastatic tissue", "setting": "[1]; autopsy at week 5", "value": "2/4"}, {"measurement": "tolerability", "setting": "[1]; mouse, in vivo, ip, 100 mg/kg", "value": "toxic"}, {"measurement": "effect on survival", "setting": "[1]; orthotopic HCT-116-luc", "value": "no significant effect on survival"}, {"measurement": "median survival", "setting": "[1]; orthotopic HCT-116-luc, i.p.", "value": 31, "unit": "days"}, {"measurement": "tumor growth (rate of change in flux, IVIS)", "setting": "[1]; orthotopic HCT-116-luc, i.p.", "value": "decrease tumor growth relative to control"}, {"measurement": "half-life", "setting": "[2]", "value": "~15", "unit": "min"}, {"measurement": "GI50", "setting": "HCT-116", "value": 4.07, "unit": "µM"}, {"measurement": "GI50", "setting": "COLO205", "value": 6.92, "unit": "µM"}, {"measurement": "GI50", "setting": "KM-12", "value": 8.71, "unit": "µM"}, {"measurement": "GI50", "setting": "HT-29", "value": 6.76, "unit": "µM"}, {"measurement": "GI50", "setting": "HCT-15", "value": 5.62, "unit": "µM"}, {"measurement": "GI50", "setting": "SW620", "value": 28.2, "unit": "µM"}, {"measurement": "IC50", "setting": "HCT-116 cells", "value": 21, "unit": "µM"}, {"measurement": "day post-treatment by which all mice required euthanasia", "setting": "HCT-116 flank tumors", "value": "≤ 16", "unit": "days"}, {"measurement": "weight loss", "setting": "HCT-116 flank tumors; CF10 300 mg/kg i.p. 2×/week", "value": "greater weight loss than mice in the other treatment groups"}, {"measurement": "TS enzymatic activity", "setting": "[3]; 24 h", "value": "reduced TS activity"}, {"measurement": "TS enzymatic activity", "setting": "[3]; 48 h", "value": "~75", "unit": "% control values"}]}
